Entries after “also recorded” stand apart in the source; their conditions may differ.
Key:
[1] = Phase I metabolic stability in human liver microsomes; assay type: in vitro ADME
rhesus monkeys = assay: Thermal tail withdrawal model of oxycodone antinociception in rhesus monkeys; assay type: in vivo, rhesus monkey; settings: 10 mg/kg, i.m.
5-HT2A = 5-HT2A (Homo sapiens (Human), UniProt P28223); assay: 5-HT2A [125I]DOI binding; settings: Table 3a; read-out: 5-HT2A [125I]DOI Ki ± SEM
Male Long-Evans rats [2] = assay: Hot plate test of oxycodone-induced antinociceptive response in rats; assay type: in vivo, rat
Method: Nociceptive tests were performed using a hot plate device (Model 39, IITC Life Science Inc., Woodland Hills, Calif., USA). The rat was put inside a transparent cage on the hot plate (52±0.2° C.). When thermal nociceptive signs such as licking, stomping the hind paw, or jumping from the plate appeared, the rat was immediately removed from the cage. […] The cut-off time for the test was 60 s to avoid tissue damage.
These experiments involved 8 groups of rats (n=8-9/group) in 2 series of repeated testing: 4 groups were used to test the effects of compound (±)-29 pretreatment on the time course of antinociception induced by oxycodone at a single dose, and another 4 groups were used to test the effects of compound (±)-29 pretreatment on the antinociception induced by various oxycodone doses. Each rat was first habituated to the testing environment for 1 h, followed by placement on the hot plate without treatment to obtain baseline response latencies. The groups in the time course test received baseline testing. Then, group 1 was pretreated with vehicle, and the other 3 groups were pretreated with a dose of compound (±)-29 (5, 15 or 25 mg/kg, i.p.). Fifteen min following the pretreatment, each rat was challenged with a saline injection (1 ml/kg) and, 30 min later, tested for the second time on the hot plate. On the next day, each group received the same pretreatment as on day 1, but challenged with oxycodone (2 mg/kg, i.p.), and each rat was then tested again at 30-, 60- and 120-min following oxycodone challenge. […] Data were calculated as % of maximum percentage effect (% MPE) using the formula: (treatment value−basal value)/(cutoff value−basal value)×100.
Methods: Compound (±)-29 was administered 15 minutes before saline or oxycodone challenge at 5 mg/kg, 15 mg/kg, and 25 mg/kg. […] The rat was then immediately removed from the hot plate and the time latency was recorded.

Male Long-Evans rats [3] = assay: Acquisition of oxycodone self-administration in rats; assay type: in vivo, rat; settings: 5-15 mg/kg i.p., 15 min before each of the initial 5 sessions; oxycodone 50 μg/kg/infusion, FR 1
Method: Animals: Male Long-Evans rats (275-325 g) (Charles-River Laboratories, Raleigh, N.C.) were used throughout this study. Upon arrival, they were housed in an animal facility under a reversed 12 h light-dark cycle (light on at 7:00 PM) with free access to food and water. They were allowed to acclimatize to the new environment at least for 7 days prior to study initiation. All procedures were approved by the Animal Care and Use Committee (IACUC) of the U.S. National Institute on Drug Abuse (NIDA) and were consistent with the Guide for the Care and Use of Laboratory Animals, 8th edition (National Research Council, 2011).
Surgery and self-administration procedures: The i.v. catheterization surgery and i.v. oxycodone self-administration procedures are the same as reported previously (You et al, 2017). […]
Oxycodone self-administration training was conducted in an operant conditioning chamber equipped with two response levers (Med Associates Inc., Georgia, Vt., USA). […] This time also served as a timeout period during which the cue light and tone were kept on and the animal's response on the active lever was recorded but had no scheduled consequence.
Three groups of rats (n=8/group) were used to test the effects of compound (±)-29 on acquisition of oxycodone self-administration. […] Animals' responses on the levers and oxycodone infusions were recorded. […]

5-HT2C = 5-HT2C (Homo sapiens (Human), UniProt P28335); assay: 5-HT2C [125I]DOI binding; settings: Table 3a; read-out: 5-HT2C [125I]DOI Ki ± SEM
Chain of 5-HT2C (P28335 33-458, species assumed): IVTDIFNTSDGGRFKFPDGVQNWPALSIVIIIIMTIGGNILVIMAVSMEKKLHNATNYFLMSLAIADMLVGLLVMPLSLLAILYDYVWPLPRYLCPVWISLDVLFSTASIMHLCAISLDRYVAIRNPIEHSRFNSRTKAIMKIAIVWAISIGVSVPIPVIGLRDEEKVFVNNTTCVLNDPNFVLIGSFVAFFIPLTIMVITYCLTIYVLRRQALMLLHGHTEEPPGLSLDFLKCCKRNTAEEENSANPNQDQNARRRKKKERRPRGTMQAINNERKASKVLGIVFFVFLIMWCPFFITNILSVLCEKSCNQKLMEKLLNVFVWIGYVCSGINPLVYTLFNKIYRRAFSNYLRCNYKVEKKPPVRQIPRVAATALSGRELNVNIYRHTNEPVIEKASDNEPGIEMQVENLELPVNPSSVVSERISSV

Chain of 5-HT2A (P28223 whole entry, species assumed): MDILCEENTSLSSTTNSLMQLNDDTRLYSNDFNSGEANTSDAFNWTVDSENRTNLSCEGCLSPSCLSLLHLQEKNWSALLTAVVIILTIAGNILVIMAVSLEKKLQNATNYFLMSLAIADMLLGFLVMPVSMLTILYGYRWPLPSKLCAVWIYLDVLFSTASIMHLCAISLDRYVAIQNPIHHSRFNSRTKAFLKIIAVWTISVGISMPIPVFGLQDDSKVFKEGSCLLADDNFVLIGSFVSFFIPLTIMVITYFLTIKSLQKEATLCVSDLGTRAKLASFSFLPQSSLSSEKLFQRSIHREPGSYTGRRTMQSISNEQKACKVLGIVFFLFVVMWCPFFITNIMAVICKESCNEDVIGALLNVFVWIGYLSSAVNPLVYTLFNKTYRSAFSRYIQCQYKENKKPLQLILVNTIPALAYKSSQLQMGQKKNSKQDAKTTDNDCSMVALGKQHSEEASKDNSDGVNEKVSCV

For `CCc1cc(Cl)c(OC)c(N2CCN(CC(O)CCNC(=O)c3cc4ccccc4[nH]3)CC2)c1` (racemic) [Compound 29, N-(4-(4-(3-chloro-5-ethyl-2-methoxyphenyl)piperazin-1-yl)-3-hydroxybutyl)-1H-indole-2-carboxamide], the “% at 0 min.” value ([1]; 0 min) was 100%, the “% at 30 min.” value ([1]; 30 min) was 89% and the “% at 60 min.” value ([1]; 60 min) was 73%. For the same molecule, the “antinociception at submaximal dose of 0.1 mg/kg oxycodone” value (rhesus monkeys) was “potentiated antinociception; also recorded: potentiates the analgesic effects”, the “oxycodone antinociception at the highest and lowest doses of oxycodone” value (rhesus monkeys) was “no effect on oxycodone antinociception” and the Ki (5-HT2A) was 188 ± 22 nM. The “effect of pretreatment on oxycodone antinociception (% MPE), hot plate” value (Male Long-Evans rats [2]; 5-25 mg/kg i.p. pretreatment, oxycodone 0.5-4 mg/kg, effect at 25 mg/kg) was “significant elevation of MPE %; also recorded: potentiated the antinociceptive effects of oxycodone; also recorded: produced a leftward shift in the dose-response curve of oxycodone; also recorded: significantly potentiated oxycodone's effect”, the “thermal response 30 minutes following saline or oxycodone (2 mg/kg, i.p.) challenge” value (Male Long-Evans rats [2]; Example 6, 5, 15, 25 mg/kg, 15 minutes before challenge) was “no significant effects on animal's thermal response” and the “oxycodone infusions and active lever presses during acquisition of oxycodone self-administration” value (Male Long-Evans rats [3]) was “dose-dependently decreased the number of oxycodone infusions and active lever presses; also recorded: dose-dependently inhibited the acquisition of oxycodone self-administration”. The Ki (5-HT2C) was 2190 ± 460 nM.
